Reference: patent publication US20090068286A1, “METHOD OF TREATING CANCER BY ADMINISTRATION OF 5-SUBSTITUTED NUCLEOSIDES” (RESprotect, GmbH, priority 2007, published 2009)

Tests used:
[1] = tested on: STAT3; assay: Western Blot analysis of survival pathways: STAT3; format: cell-based; settings: after DOX treatment, recovery phase: only BVDU given, no cytostatic
Protocol: Different “survival pathways” were tested by means of Western Blot analysis. The analyses were implemented according to standard methods, as is described in Sambrook et al., 2001, Molecular Cloning (3rd ed.). Antibody dilutions: P-STAT3 (cell signaling) 1: 500, JUN-D (Santa Cruz, Calif.) 1: 1,000.
The densitometrically determined content of oncogene proteins JUN-D and STAT3 was reduced by a quarter or two thirds after DOX treatment in the recovery phase (r=recovery phase). In the “recovery” only BVDU is given, no cytostatic.

[2] = tested on: uridine phosphorylase (UPase); assay: UPase expression in human pancreas carcinoma cell lines; format: cell-based
Excerpt: BVDU downregulates uridine phosphorylase (UPase) expression in BxPC-3 and AsPC-1 human pancreas carcinoma cell lines. […] In squamous cell carcinoma, high staining of UPase in primary tumors was frequently associated with the presence of lymph node metastases and lower overall survival.

[3] = tested on: Yoshida AH13r hepatoma cells; assay: Growth of s.c. Yoshida AH13r hepatoma tumors in SD-rats; format: in vivo, rat
Protocol: Ten SD-rats per treatment group were given a single s.c. injection of ascites Yoshida AH13r hepatoma cells. Five to 7 days after tumor application, the growth of the resulting tumors (at the injection site) was suppressed by i.p. treatment of the animals with cisplatin, doxorubicin or cyclophosphamide, or by additional oral treatment with 15 mg/kg BVDU (15 times within 3 weeks).

For `O=c1[nH]c(=O)n([C@H]2C[C@H](O)[C@@H](CO)O2)cc1/C=C/Br` [BVDU, (E)-5-(2-bromovinyl)-2′-deoxyuridine], the “Reduction of STAT3 protein content (densitometry)” value [1] was “approximately two thirds”, the UPase expression ([2]; AsPC-1 human pancreas carcinoma cell line) was “downregulates” and the UPase expression ([2]; BxPC-3 human pancreas carcinoma cell line) was “downregulates”. The “Effect on tumor size” value ([3]; BVDU 50 mg/kg given only on the same day as cisplatin, no recovery phase) was “only weak”, the “Effect on tumor size” value ([3]; BVDU 15 times alone in the recovery phase, one time together with cyclophosphamide) was “strong effect” and the “Effect on tumor size” value ([3]; BVDU alone or in combination with DOX, recovery phase 6× one day) was “strong effect”. For the same compound, the “Influence on the growth of rat tumors” value ([3]; BVDU given alone, oral) was “no influence” and the “Effect on tumor size” value ([3]; BVDU with CIS, recovery phase 4×3 or 2 days) was “very strong”.
